Laboratory results as given in US20240285808A1, “MOLECULAR PROBES FOR IN VIVO DETECTION OF ALDEHYDES” (The General Hospital Corporation, priority 2021, published 2024).
Values joined by “and” are separate entries in the source; they are usually repeats but may differ in a detail not shown here. Equal values may be shown once.

What was measured:
[1] = Relaxivity measurements in PBS; format: physicochemical; details: 1.4 T, 37° C.
[2] = target: bovine serum albumin (BSA) (Bos taurus, UniProt P02769); assay: Relaxivity measurements with BSA; format: binding; details: 1.4 T, 37° C., BSA 10 mg/mL
[3] = target: T1, BSA-ALD (oxidized bovine serum albumin containing allysine aldehyde groups) (Bos taurus, UniProt P02769); assay: Relaxivity measurements with BSA-Ald; format: binding; details: for r1, +BSA-Ald / r1, Bound to BSA-Ald: 1.4 T; for r1, +BSA-Ald / r1, Bound to BSA-Ald / increase of r1 in BSA^Ald compared to PBS value: 37° C.; for r1, +BSA-Ald: BSA-Ald 10 mg/mL; for r1, Bound to BSA-Ald: protein-bound species after NaBH3CN and ultrafiltration; for increase of r1 in BSA^Ald compared to PBS value: 1.41 T
T1 construct: made in house; host or cells: no expression host: BSA oxidised chemically with sodium ascorbate, ferric chloride and H2O2, then desalted on PD-10

[4] = Biodistribution of ^nat/52Mn-based probes in naïve mice; format: in vivo, mouse; details: 24 h post injection
Procedure: Example 32. Radiolabeling of Compounds 15-18 with ^52Mn and Preparation of ^52/natMn Complex
^52MnCl2 (5 mCi) was received from the cyclotron facility at the Alabama at Birmingham and diluted to 500 μL with 0.1 M HCl. Solution of […] (50 μL, 1.0 mg in 1 mL of 1.5 M NaOAc buffer, pH 4.5) was mixed with 50 μL of ^52MnCl2. The reaction mixture was kept at room temperature for 15 min and diluted with 200 μL of sterile PBS. The injected dose of ^52/natMn complex was obtained by mixing solution of ^52Mn labeled Compound 15-18 with stock solution of ^natMn labeled Compound 15-18 (^natMn final concentration: 30 mM).
Bleomycin-injured mice at 14 days after injury were sedated and then injected with Compound 19, Compound 20, Gd-CHyd (Akam, E. A., et al. Improving the reactivity of hydrazine-bearing MRI probes for in vivo imaging of lung fibrogenesis. Chemical Science 11, 224-231 (2020)) formulated to contain an equal concentration of Eu-DOTA as a non-binding control probe. Animals were then euthanized at 30 minutes after injection. The lungs were harvested separately, along with blood, tail and liver. Each sample was analyzed by ICP-MS for gadolinium and europium content, and the lungs were also assessed for hydroxyproline content. Selectivity is reported as the ratio of Gd to Eu. All animals were dosed via tail vein injection at 100 nmol/g body weight from 30 mM solutions of gadolinium probes with 30 mM Eu-DOTA as determined by ICP-MS. For PET probes, Compounds 1-8 were radiolabeled with either ^68Ga or ^64Cu and the dose was delivered as a bolus injection through tail vein. Animals were euthanized 90 min post injection and their organs and tissues were harvested and counted using a gamma counter. For an imaging study with a PET tracer, animals were injected inside PET/MRI scanner and scanned dynamically for 60 min under anesthesia. The animals were euthanized 90 min post injection and their organs and tissues were counted using a gamma counter. The biodistribution of Mn-15, Mn-16, Mn-17, and Mn-18 was determined by injecting a mixture of ^52/nat complex into naïve mice and activity in each tissue were measured 24 hours post injection.

Chain of bovine serum albumin (BSA) (P02769 25-607): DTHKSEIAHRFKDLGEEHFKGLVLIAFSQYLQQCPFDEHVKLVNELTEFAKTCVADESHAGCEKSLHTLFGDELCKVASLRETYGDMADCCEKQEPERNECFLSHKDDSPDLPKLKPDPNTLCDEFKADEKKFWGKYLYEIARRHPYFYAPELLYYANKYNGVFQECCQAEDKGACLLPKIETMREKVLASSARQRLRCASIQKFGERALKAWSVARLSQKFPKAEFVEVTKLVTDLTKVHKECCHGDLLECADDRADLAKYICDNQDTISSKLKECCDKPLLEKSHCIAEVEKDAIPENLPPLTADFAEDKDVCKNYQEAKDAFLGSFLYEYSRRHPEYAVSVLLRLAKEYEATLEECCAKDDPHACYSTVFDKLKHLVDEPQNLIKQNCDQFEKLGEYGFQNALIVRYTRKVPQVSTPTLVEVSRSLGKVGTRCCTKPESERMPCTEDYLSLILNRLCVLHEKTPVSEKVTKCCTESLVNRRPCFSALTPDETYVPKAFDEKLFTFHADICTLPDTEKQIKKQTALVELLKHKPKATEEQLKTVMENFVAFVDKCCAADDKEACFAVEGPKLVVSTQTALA
T1 sequence (P02769 25-607): as above

Compound	r1, PBS [1]	r1, +BSA [2]	r1, +BSA-Ald [3]	r1, Bound to BSA-Ald [3]	increase of r1 in BSA^Ald compared to PBS value [3]	turn-on in relaxivity upon binding to allysine (BSA-Ald bound vs unbound) [3]	Biodistribution, Blood [4]	Biodistribution, Bone [4]	Biodistribution, Brain [4]	Biodistribution, Heart [4]	Biodistribution, Intestine [4]	Biodistribution, Kidney [4]	Biodistribution, Liver [4]	Biodistribution, Lung [4]	Biodistribution, Muscle [4]	Biodistribution, Skin [4]	Biodistribution, Spleen [4]	Biodistribution, Stomach [4]	also measured
NN1CCN(C(=O)CCC(C(=O)[O-])N2CCN(CC(=O)[O-])CCN(CC(=O)[O-])CCN(C(CCC(=O)N3CCN(N)CC3)C(=O)[O-])CC2)CC1.[Gd+3] (stereo not drawn) [Gd-9, cis-1,4-Gd-(CHyd)2]	6.6 mM⁻¹ s⁻¹	6.6 mM⁻¹ s⁻¹ and 6.5 mM⁻¹ s⁻¹	11.7 mM⁻¹ s⁻¹ and 11.2 mM⁻¹ s⁻¹	17.7 mM⁻¹ s⁻¹	77%														fold higher relaxivity than Gd-CHyd [3]: 2.3 fold; higher protein-bound relaxivity than monobinder Gd-CHyd [3]: 50%
NN1CCN(C(=O)CCC(C(=O)[O-])N2CCN(CC(=O)[O-])CCN(C(CCC(=O)N3CCN(N)CC3)C(=O)[O-])CCN(CC(=O)[O-])CC2)CC1.[Gd+3] (stereo not drawn) [Gd-10, trans-1,7-Gd-(CHyd)2]	6.6 mM⁻¹ s⁻¹	6.6 mM⁻¹ s⁻¹	9.0 mM⁻¹ s⁻¹	18.7 mM⁻¹ s⁻¹	36%														
NNC(CCC(=O)NCCCN1CCN(CC(=O)[O-])Cc2cccc(n2)CN(CC(=O)[O-])CC1)C(=O)O.[Mn+2] (stereo not drawn) [Mn-15]	3.1 mM⁻¹ s⁻¹	3.6 mM⁻¹ s⁻¹	5.9 mM⁻¹ s⁻¹	12.7 mM⁻¹ s⁻¹	90%	4 fold and ~3 fold	0.0018 % ID/g	0.0385 % ID/g	0.0156 % ID/g	0.0532 % ID/g	0.0665 % ID/g	0.7021 % ID/g	0.2186 % ID/g	0.1312 % ID/g	0.0154 % ID/g	0.0719 % ID/g	0.0843 % ID/g	0.0759 % ID/g	turn on in relaxivity ([3]; 1.4T): 270%
NOC(CCC(=O)NCCCN1CCN(CC(=O)[O-])Cc2cccc(n2)CN(CC(=O)[O-])CC1)C(=O)O.[Mn+2] (stereo not drawn) [Mn-16]	3.1 mM⁻¹ s⁻¹	3.4 mM⁻¹ s⁻¹	7.7 mM⁻¹ s⁻¹	12.7 mM⁻¹ s⁻¹		4 fold	0.0051 % ID/g	0.1378 % ID/g	0.0275 % ID/g	0.1579 % ID/g	0.1330 % ID/g	0.9664 % ID/g	0.3950 % ID/g	0.4469 % ID/g	0.0669 % ID/g	0.9457 % ID/g	0.1978 % ID/g	0.1638 % ID/g	
NNCC(=O)NCCCN1CCN(CC(=O)[O-])Cc2cccc(n2)CN(CC(=O)[O-])CC1.[Mn+2] [Mn-17]	3.0 mM⁻¹ s⁻¹	3.5 mM⁻¹ s⁻¹	5.6 mM⁻¹ s⁻¹	11.4 mM⁻¹ s⁻¹	90%	4 fold and ~3 fold	0.0020 % ID/g	0.0414 % ID/g	0.0170 % ID/g	0.0675 % ID/g	0.0556 % ID/g	0.5387 % ID/g	0.2125 % ID/g	0.1954 % ID/g	0.0196 % ID/g	0.0925 % ID/g	0.0965 % ID/g	0.0681 % ID/g	
CN(C)C(CCC(=O)NCCCN1CCN(CC(=O)[O-])Cc2cccc(n2)CN(CC(=O)[O-])CC1)C(=O)O.[Mn+2] (stereo not drawn) [Mn-18]	3.1 mM⁻¹ s⁻¹	3.5 mM⁻¹ s⁻¹	3.6 mM⁻¹ s⁻¹				0.0013 % ID/g	0.0227 % ID/g	0.0145 % ID/g	0.0364 % ID/g	0.0355 % ID/g	0.5290 % ID/g	0.1833 % ID/g	0.0599 % ID/g	0.0132 % ID/g	0.0243 % ID/g	0.0616 % ID/g	0.0477 % ID/g	
